Results: patent publication US20100003217A1, “Compounds and Pharmaceutical Compositions for the Treatment of Viral Infections” (priority 2008, published 2010)
Values joined by “and” are separate entries in the source; they are usually repeats but may differ in a detail not shown here. Identical values can stand only once.

What was measured:
[1] = test system: human primary hepatocytes; experiment: Metabolic disposition of [^14C]-Compound 1 and [^14C]-2′-C-methyl guanosine in human primary hepatocytes (incubation medium, cellular extracts, nucleotide levels); type: in vitro ADME; settings: for Major metabolites observed in cellular extracts (% of total radioactivity): human hepatocytes Hu775, 1 μM [^14C]-2′-C-methyl guanosine
Protocol: (§1) Primary hepatocytes: Freshly isolated cells from animal and human liver were obtained in suspension on ice. Cells were pelleted by centrifugation at 70-75×g (rat) or 95-90×g (monkey and human) and resuspended at 0.8 million cells per mL of platting medium (William's E supplemented with 5% FBS, 0.5% penicillin-streptomycin, 1% L-glutamine, 4 μg/mL insulin and 1 μM dexamethasone). Multi-well collagen I-coated plates (rat tail collagen type I; 12- or 6-well) were then seeded by addition of 1 mL (12-well; 0.8 million cells/well) or 2 mL (6-well; 1.6 million cells/well) of cell suspension. The plates were gently shaken to evenly distribute the cells and placed in an incubator at 37° C. for approximately 4 to 6 hours to allow cells to attach. Once cells were attached, the platting medium was removed and replaced with hepatocyte culture medium (William's E supplemented with penicillin-streptomycin, 1% L-glutamine, 1% insulin-transferrin-selenium and 0.1 μM dexamethasone). Cells were left overnight in an incubator at 37° C. to acclimatize to culture and the medium.
(§2) Hepatocyte incubations with radiolabeled Compound 1 and 2′-C-methyl guanosine, both labeled in the C-8 position of the guanine moiety, were conducted at a final volume of 2.0 mL hepatocyte culture medium/well ([…]). Culture medium from overnight incubation of cells was removed and replaced with fresh medium, pre-warmed to 37° C., containing 1 or 10 μM [^14C]-Compound 1 ([…]) or [^14C]-2′-C-methyl guanosine (127 DPM/μmol) from a stock solution in DMSO (final DMSO concentration was 0.1%) or 50% ethanol (final ethanol concentration was 0.2%). After 1, 4, 8 and 24 hours, 0.5-1.0 mL of incubation medium was removed and stored at −20° C. until analysis (described below). The remaining medium was discarded and cell monolayers were carefully washed two times with ice-cold PBS. Following the last wash, all PBS was carefully removed and 1.0 mL of extraction solution (ice-cold 70% methanol) added. Cells were scrapped off and suspended in the extraction solution, transferred to 2 mL polypropylene microfuge tubes and intracellular contents extracted overnight at −20° C.
(§3) Preliminary identification of putative metabolites was conducted by comparing the retention time of observed metabolites in incubation medium and cellular extracts with retention times obtained with chemically synthesized standards using the chromatography conditions described below. Further identification of 2′-C-methyl guanosine nucleotides (mono-, di- and triphosphate) was carried out by incubating cellular extract samples with alkaline phosphatase (10 units for 60 min at 37° C.) and comparing the HPLC retention times of the resulting nucleosides with that of authentic 2′-C-methyl guanosine.
(§4) Cellular extracts were prepared by centrifugation at 16,000 RCF using an Eppendorf microcentrifuge (Eppendorf, Model 5415D) for 10 min to remove cellular debris. An aliquot of 5-10 μL of the supernatant was added to 5 mL of EcoLite™ (MP, Irvine, Calif.) liquid scintillation cocktail and radioactivity measured by liquid scintillation counting (LSC) using a Beckman Coulter LS6500 multipurpose liquid scintillation counter (Beckman Instruments, Fullerton, Calif.). The remaining sample was then dried using a Labconco refrigerated centrivap concentrator (Labconco, Kansas City, Mo.). Dry extracts were reconstituted in 120 μL of HPLC-grade water and centrifuged at 16,000 RCF using an Eppendorf microcentrifuge for 10 min. Prior to HPLC analysis (described below), radioactivity of the concentrated extracts was measured by LSC using 5 μL aliquots. Extraction recovery was then determined by comparing total radioactivity in extracts before and after drying. The remaining extract was then analyzed by HPLC with online radioactivity detection using a Flow Scintillation Analyzer Radiomatic™ 515TR. Radioactivity in the separated components was quantified by integrating the peaks using Flo-One™ Software (Perkin Elmer Life Sciences). […]

[2] = test system: monkey primary hepatocytes; experiment: Metabolic disposition of [^14C]-Compound 1 and [^14C]-2′-C-methyl guanosine in monkey primary hepatocytes (incubation medium, cellular extracts, nucleotide levels); type: in vitro ADME, Cynomolgus monkey; settings: for Major metabolites observed in cellular extracts (% of total radioactivity): 10 μM [^14C]-2′-C-methyl guanosine
Protocol: as §1, §2, §3, §4

[3] = human hepatocytes (Hu759, Hu775), 10 μM [^14C]-Compound 1, 1 h
[4] = human hepatocytes (Hu759, Hu775), 10 μM [^14C]-Compound 1, 8 h
[5] = human hepatocytes (Hu759, Hu775), 10 μM [^14C]-Compound 1, 24 h
[6] = human hepatocytes (Hu775), 1 μM [^14C]-Compound 1, 0 h
[7] = human hepatocytes (Hu775), 1 μM [^14C]-Compound 1, 1 h
[8] = human hepatocytes (Hu775), 1 μM [^14C]-Compound 1, 8 h
[9] = human hepatocytes (Hu775), 1 μM [^14C]-Compound 1, 24 h
[10] = human hepatocytes (lots Hu759, Hu775), 10 μM [^14C]-Compound 1, 0 h
[11] = human hepatocytes (lots Hu759, Hu775), 10 μM [^14C]-Compound 1, 4 h
[12] = human hepatocytes (lots Hu759, Hu775), 10 μM [^14C]-Compound 1, 8 h
[13] = human hepatocytes (lots Hu759, Hu775), 10 μM [^14C]-Compound 1, 24 h
[14] = monkey hepatocytes (Cy230, Cy234), 10 μM [^14C]-Compound 1, 1 h
[15] = monkey hepatocytes (Cy230, Cy234), 10 μM [^14C]-Compound 1, 8 h
[16] = monkey hepatocytes (Cy230, Cy234), 10 μM [^14C]-Compound 1, 24 h
[17] = monkey hepatocytes (Cy234), 10 μM [^14C]-Compound 1, 4 h
[18] = monkey hepatocytes (lot Cy234), 10 μM [^14C]-Compound 1, 4 h
[19] = monkey hepatocytes (lots Cy230, Cy234), 10 μM [^14C]-Compound 1, 0 h
[20] = monkey hepatocytes (lots Cy230, Cy234), 10 μM [^14C]-Compound 1, 8 h
[21] = monkey hepatocytes (lots Cy230, Cy234), 10 μM [^14C]-Compound 1, 24 h

C[C@@]1(O)[C@H](O)[C@@H](CO)O[C@H]1n1cnc2c(=O)[nH]c(N)nc21 [2′-C-methyl guanosine, 9-(2-C-methyl-β-D-ribofuranosyl)guanine, reference compound]
metabolites observed in cellular extracts (% of total radioactivity) ([1]; human hepatocytes (Hu759, Hu775), 10 μM [^14C]-2′-C-methyl guanosine, 1 h): 97.1% and 94.9% | metabolites observed in cellular extracts (% of total radioactivity) ([1]; human hepatocytes (Hu759, Hu775), 10 μM [^14C]-2′-C-methyl guanosine, 4 h): 87.3% and 77.3% | metabolites observed in cellular extracts (% of total radioactivity) ([1]; human hepatocytes (Hu759, Hu775), 10 μM [^14C]-2′-C-methyl guanosine, 8 h): 73.9% and 61.4% | metabolites observed in cellular extracts (% of total radioactivity) ([1]; human hepatocytes (Hu759, Hu775), 10 μM [^14C]-2′-C-methyl guanosine, 24 h): 52.4% and 40.2% | metabolites observed in cellular extracts (% of total radioactivity) [1, 3]: 3.69% and 3.75% | metabolites observed in cellular extracts (% of total radioactivity) ([1]; human hepatocytes (Hu759, Hu775), 10 μM [^14C]-Compound 1, 4 h): 4.20% and 3.10% | metabolites observed in cellular extracts (% of total radioactivity) [1, 4]: 7.52% and 5.89% | metabolites observed in cellular extracts (% of total radioactivity) [1, 5]: 10.3% and 9.06% | metabolites observed in medium (% of total radioactivity) [1, 6]: BLD^a | metabolites observed in cellular extracts (% of total radioactivity) [1, 7]: BLD^a | metabolites observed in medium (% of total radioactivity) [1, 7]: BLD | metabolites observed in cellular extracts (% of total radioactivity) [1, 8]: 4.34% | metabolites observed in medium (% of total radioactivity) [1, 8]: 9.20% and 9.22% | metabolites observed in cellular extracts (% of total radioactivity) [1, 9]: 9.05% | metabolites observed in medium (% of total radioactivity) [1, 9]: 39% and 38.7% | metabolites observed in medium (% of total radioactivity) [1, 10]: BLD^b and BLD | metabolites observed in medium (% of total radioactivity) ([1]; human hepatocytes (lots Hu759, Hu775), 10 μM [^14C]-Compound 1, 1 h): BLD and BLD^a | metabolites observed in medium (% of total radioactivity) [1, 11]: 1.7% and 1.6% | metabolites observed in medium (% of total radioactivity) [1, 12]: 4.6% and 7% | metabolites observed in medium (% of total radioactivity) [1, 13]: 22.1% and 29% | Major metabolites observed in cellular extracts (% of total radioactivity) ([1]; 1 h): 94.6 % of total radioactivity | Major metabolites observed in cellular extracts (% of total radioactivity) ([1]; 8 h): 65.8 % of total radioactivity | Major metabolites observed in cellular extracts (% of total radioactivity) ([1]; 24 h): 41.3 % of total radioactivity | metabolites observed in cellular extracts (% of total radioactivity) [2, 14]: 1.68% and 3.04% | metabolites observed in cellular extracts (% of total radioactivity) [2, 15]: 0.95% and 2.06% | metabolites observed in cellular extracts (% of total radioactivity) [2, 16]: 2.31% and 1.25% | metabolites observed in cellular extracts (% of total radioactivity) [2, 17]: 1.35% | metabolites observed in medium (% of total radioactivity) [2, 18]: 6.8% | metabolites observed in medium (% of total radioactivity) [2, 19]: BLD^c and BLD | metabolites observed in medium (% of total radioactivity) [2, 20]: 10.4% and 14.8% | metabolites observed in medium (% of total radioactivity) [2, 21]: 48.8% and 35.6% | Major metabolites observed in cellular extracts (% of total radioactivity) ([2]; monkey hepatocytes Cy230, 1 h): 96.4 % of total radioactivity | Major metabolites observed in cellular extracts (% of total radioactivity) ([2]; monkey hepatocytes Cy230, 8 h): 77.3 % of total radioactivity | Major metabolites observed in cellular extracts (% of total radioactivity) ([2]; monkey hepatocytes Cy230, 24 h): 65.0 % of total radioactivity | Major metabolites observed in cellular extracts (% of total radioactivity) ([2]; monkey hepatocytes Cy234, 1 h): 86.9 % of total radioactivity | Major metabolites observed in cellular extracts (% of total radioactivity) ([2]; monkey hepatocytes Cy234, 4 h): 57.9 % of total radioactivity | Major metabolites observed in cellular extracts (% of total radioactivity) ([2]; monkey hepatocytes Cy234, 8 h): 45.8 % of total radioactivity | Major metabolites observed in cellular extracts (% of total radioactivity) ([2]; monkey hepatocytes Cy234, 24 h): 29.0 % of total radioactivity

C[C@@]1(O)[C@H](O)[C@@H](COP(=O)(O)NCc2ccccc2)O[C@H]1n1cnc2c(=O)[nH]c(N)nc21 [Compound 2, [(2R)-2-methyl-β-D-ribofuranosyl]guanine-N-benzylaminyl-5′-monophosphate]
metabolites observed in cellular extracts (% of total radioactivity) [1, 3]: 6.50% and 2.30% | metabolites observed in cellular extracts (% of total radioactivity) [1, 4]: BLD | metabolites observed in cellular extracts (% of total radioactivity) [1, 5]: BLD | metabolites observed in medium (% of total radioactivity) [1, 6]: 2.22% | metabolites observed in cellular extracts (% of total radioactivity) [1, 7]: 4.94% | metabolites observed in medium (% of total radioactivity) [1, 7]: BLD | metabolites observed in cellular extracts (% of total radioactivity) [1, 8]: BLD | metabolites observed in medium (% of total radioactivity) [1, 8]: 2.27% | metabolites observed in cellular extracts (% of total radioactivity) [1, 9]: BLD | metabolites observed in medium (% of total radioactivity) [1, 9]: 1.7% and 1.72% | metabolites observed in medium (% of total radioactivity) [1, 10]: 2.7% and 1.1% | metabolites observed in medium (% of total radioactivity) [1, 11]: 1.8% and 0.8% | metabolites observed in medium (% of total radioactivity) [1, 12]: 2.6% and 0.6% | metabolites observed in medium (% of total radioactivity) [1, 13]: 2.7% and 0.7% | metabolites observed in cellular extracts (% of total radioactivity) [2, 14]: 3.20% and 7.96% | metabolites observed in cellular extracts (% of total radioactivity) [2, 15]: BLD^c and BLD | metabolites observed in cellular extracts (% of total radioactivity) [2, 16]: BLD | metabolites observed in cellular extracts (% of total radioactivity) [2, 17]: 1.25% | metabolites observed in medium (% of total radioactivity) [2, 18]: 1.1% | metabolites observed in medium (% of total radioactivity) [2, 19]: 1.0% and 6.2% | metabolites observed in medium (% of total radioactivity) ([2]; monkey hepatocytes (lots Cy230, Cy234), 10 μM [^14C]-Compound 1, 1 h): 1.9% and 0.6% | metabolites observed in medium (% of total radioactivity) [2, 20]: 8.5% and 1.8% | metabolites observed in medium (% of total radioactivity) [2, 21]: 7.0% and 8.2%
